Reference: patent US20080064705A1, “Theophylline-based nitophenylpiperazine derivatives for enhancing aortic smooth muscle relaxation” (KAOHSIUNG MEDICAL UNIVERSITY, priority 2006, published 2008)

How the values were obtained:
eNOS in HUVECs = assay: eNOS protein expression in HUVECs (Western blot, densitometry); format: cell-based, human
Description: Human umbilical vein endothelial cells (HUVECs, American Type Culture Collection, Rockville, Md.) were cultured in F12 nutrient mixture medium supplemented with 10% FBS, 1.6 mM L-glutamine, […] endothelial cell growth supplement, 100 U/mL penicillin, […], and 10 U/mL heparin. HUVECs of passages 3-5 were used for all experiments.
Endothelial cells were processed, and eNOS protein abundance was determined by Western blot analysis using anti-eNOS antibody (BD Transduction Laboratories, San Diego, Calif.) in a manner that was similar to that described in our previous study.

PDE3 = PDE3 (Homo sapiens, UniProt Q14432); design: dose or concentration left out as unconfirmed; conditions: n=3
Sequence of PDE3 (Q14432 whole entry): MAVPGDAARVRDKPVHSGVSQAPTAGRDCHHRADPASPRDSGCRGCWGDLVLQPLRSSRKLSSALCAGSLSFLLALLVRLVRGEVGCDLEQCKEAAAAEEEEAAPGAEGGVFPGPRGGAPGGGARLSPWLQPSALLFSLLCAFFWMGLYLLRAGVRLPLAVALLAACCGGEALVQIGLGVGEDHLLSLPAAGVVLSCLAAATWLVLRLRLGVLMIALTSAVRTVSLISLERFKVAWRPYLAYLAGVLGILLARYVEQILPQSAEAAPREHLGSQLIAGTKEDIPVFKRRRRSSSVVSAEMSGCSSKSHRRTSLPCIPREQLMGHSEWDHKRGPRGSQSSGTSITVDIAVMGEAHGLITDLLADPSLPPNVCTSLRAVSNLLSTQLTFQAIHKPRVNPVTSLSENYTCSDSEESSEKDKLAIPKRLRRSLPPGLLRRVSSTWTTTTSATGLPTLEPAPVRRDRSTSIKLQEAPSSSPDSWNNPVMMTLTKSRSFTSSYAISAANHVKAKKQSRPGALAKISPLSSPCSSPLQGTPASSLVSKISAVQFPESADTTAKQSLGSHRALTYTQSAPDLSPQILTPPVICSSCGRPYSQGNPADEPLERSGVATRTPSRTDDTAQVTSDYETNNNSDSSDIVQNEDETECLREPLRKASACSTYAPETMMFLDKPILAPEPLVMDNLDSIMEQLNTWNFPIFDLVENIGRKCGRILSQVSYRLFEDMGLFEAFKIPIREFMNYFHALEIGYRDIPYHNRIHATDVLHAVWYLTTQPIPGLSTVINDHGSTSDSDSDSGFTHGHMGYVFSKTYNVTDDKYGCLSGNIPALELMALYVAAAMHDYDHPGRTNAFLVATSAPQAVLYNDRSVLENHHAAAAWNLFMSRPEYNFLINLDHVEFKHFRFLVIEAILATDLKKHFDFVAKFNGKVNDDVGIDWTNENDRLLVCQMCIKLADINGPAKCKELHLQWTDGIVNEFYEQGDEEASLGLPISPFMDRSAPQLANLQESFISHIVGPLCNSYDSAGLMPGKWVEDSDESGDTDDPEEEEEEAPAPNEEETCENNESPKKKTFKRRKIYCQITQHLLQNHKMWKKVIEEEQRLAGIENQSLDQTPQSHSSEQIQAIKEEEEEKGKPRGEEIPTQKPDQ
Description: (§1) PDE activities were determined by the method of Hidaka and Asano (Hidaka H, Asano T., Biochim Biophys Acta., 429, 485-497, 1976). Washed human platelets were used for both PDE3 and PDE5 analyses, and human U937 cells for PDE4. Purified protein containing PDE3, PDE4, or PDE5 enzyme was resuspended in 50 mM Tris-HCl containing 5 mM MgCl2 (pH 7.5). […] After 20 minutes at 37° C., the samples were heated to 100° C. for 2 minutes. Ophiophagis Hannah snake venom (10 mg/mL, […]) was then added and incubated at 37° C. for 10 minutes to convert the 5′-GMP and 5′-AMP to the uncharged nucleosides guanosine and adenosine, respectively. An ion-exchange resin ([…]) was added to bind all unconverted cGMP or cAMP. After centrifuging, the supernatant was removed for determination of radiolabeled guanosine or adenosine by a liquid scintillation counter.

PDE5 = PDE5 (Homo sapiens, UniProt O76074); design: dose or concentration left out as unconfirmed; conditions: n=3
Description: as §1

cAMP levels in RASMCs = assay: Intracellular cAMP levels in RASMCs (radioimmunoassay); format: cell-based, rat
Description: (§2) Rat aortic smooth muscles were obtained as sterile surgical specimens. The tissue was washed and cut into 1- to 2-mm pieces and placed into culture dishes with Dulbecco modified Eagle medium (DMEM) containing 20% fetal bovine serum (FBS), 100 U/mL penicillin G, […], and 2 mM glutamine. After these explants attached to the culture dish, usually in 1 to 2 days, DMEM supplemented with 10% FBS, penicillin, streptomycin, and glutamine was added. Rat aortic smooth muscle cells (RASMCs) migrated from the explants in 3-5 days. At this time, the explants were removed, and cells were allowed to achieve confluence. Cells were detached using 0.05% trypsin and 0.02% EDTA at 37° C. for 5 minutes to establish secondary cultures. Cultures were maintained for no more than 4 passages. To exclude contamination by endothelial cells and fibroblasts, the cell homogeneity was further confirmed by the presence of smooth muscle-specific α-actin and α-myosin. Indirect immunofluorescence staining for a variety of antigens was carried out by first plating the cells on chamber slides, fixing the cells in 3.7% formaldehyde in phosphate-buffered saline for 10 minutes, and then permeabilizing the cells with phosphate-buffered saline plus 0.1% Triton X-100. Cells were stained with a mouse monoclonal antibody directed against the amino-terminal 10 amino acids of a-smooth muscle actin and α-myosin (Boehringer Mannheim, Indianapolis, Ind.). All were stained with fluoresceinlabeled goat anti-mouse IgG antibody.
(§3) Intracellular cGMP and cAMP levels in RASMCs were described previously (Wu B N, Lin R J, Lin C Y, et al., Br J Pharmacol., 134, 265-274, 2001). In brief, cells were grown in 24-well plates (10^5 cells/well). At confluence, monolayer cells are washed with phosphate buffer solution (PBS) and then incubated with KMUP-3, KMUP-4, or other PDE inhibitors (10 or 100 μM) for 20 minutes. Incubation is terminated by the addition of 10% trichloroacetic acid (TCA). Cell suspensions are sonicated and then centrifuged at 2500 g for 15 minutes at 4° C. To remove TCA, the supernatants are extracted 3 times with 5 volumes of water-saturated diethyl ether. Then, the supernatants are lyophilized, and cGMP or cAMP of each sample is determined by using commercially available radioimmunoassay kits (Amersham Pharmacia Biotech, Buckinghamshire, England).

PDE4 = PDE4 enzyme inhibitory activity (method of Hidaka and Asano); format: biochemical, human; design: dose or concentration left out as unconfirmed; conditions: n=3
Description: as §1

cGMP levels in RASMCs = assay: Intracellular cGMP levels in RASMCs (radioimmunoassay); format: cell-based, rat
Description: as §2, §3

rat aortic rings = assay: Relaxation of precontracted isolated rat aortic rings (isometric tension, organ bath); conditions: for pEC50 of vasorelaxation: precontracted with PE 10 μM, cumulative 1 nM-100 μM
Description: The aortic rings were prepared as follows. 24 Rats (200-300 g) were killed under mild anesthesia with ether, and their aortas were quickly excised.
Isometric tension was recorded with a force displacement transducer (Grass, Model FT03, Quincy, Mass.). The endothelium layer was removed mechanically by inserting the tip of a pair of forceps into the lumen and rolling the tissue back and forth several times on a paper towel moistened with physiological salt solution. At the beginning of each experiment, aortic rings were stretched to a resting tension of 1.5 g and then contracted with phenylephrine (PE, […]), and once the contractions had reached a plateau, the endothelial integrity of the preparations (abbreviated as endothelium-intact in the following) or absence of endothelium (abbreviated as E^− in the following) was verified by adding ACh ([…]) to the superfusate. […] The preparations were then washed and allowed to equilibrate with Krebs solution for 45 minutes before being contracted a second time with PE. When the stable vasoconstriction to PE (10 μM) was reached, concentration-response curves to KMUP-3 and KMUP-4 (1 nM-100 μM) were constructed. Additionally, aortic rings were preconstricted with 80 mM KCl. When the contraction reached a steady state, cumulative concentration-response curves to KMUP-3 and KMUP-4 (1 nM-100 μM) were determined. In this experiment, the high-K^+ solution was prepared by replacing NaCl with KCl (80 mM) in an equimolar amount.

In the case of Cn1c(=O)c2c(ncn2CCN2CCN(c3ccc([N+](=O)[O-])cc3)CC2)n(C)c1=O [KMUP-3, 7-[2-[4-(4-nitrobenzene)-piperazinyl]ethyl]-1,3-dimethylxanthine], the “time at which maximal eNOS protein expression was achieved” value (eNOS in HUVECs; 0.1 μM) is reported as 18 h, the “expression of eNOS protein” value (eNOS in HUVECs; 0.1 μM (also 0.1 mM in source), 18 hours) is reported as “significantly increased” and the “enzyme inhibitory activity for PDE3” value (PDE3) is reported as 55±3.1%. The “enzyme inhibitory activity for PDE5” value (PDE5) was 48±2.6%, the “cAMP (pmol/10^5 Cells)” value (cAMP levels in RASMCs; Table 1, 10 μM of test agent, RASMCs, 20 minutes) was 16.18 ± 1.15 pmol/10^5 Cells and the “cAMP (pmol/10^5 Cells)” value (cAMP levels in RASMCs; Table 2, 10 μM of test agent alone) was 16.28 ± 1.20 pmol/10^5 Cells. For the same compound, the “cAMP (pmol/10^5 Cells)” value (cAMP levels in RASMCs; Table 2, 10 μM of test agent plus SQ 22536 (100 μM)) was 10.30 ± 0.82 pmol/10^5 Cells, the “enzyme inhibitory activity for PDE4” value (PDE4) was 48±2.4% and the “cGMP (fmol/10^5 cells)” value (cGMP levels in RASMCs; Table 1, 100 μM of test agent, RASMCs, 20 minutes) was 64.51 ± 4.68 fmol/10^5 Cells. The “cGMP (fmol/10^5 cells)” value (cGMP levels in RASMCs; Table 2, 100 μM of test agent alone) was 65.02 ± 4.75 fmol/10^5 cells, the “cGMP (fmol/10^5 cells)” value (cGMP levels in RASMCs; Table 2, 100 μM of test agent plus ODQ (10 μM)) was 34.26 ± 2.89 fmol/10^5 cells and the “cGMP (fmol/10^5 cells)” value (cGMP levels in RASMCs; Table 3, SNP (100 μM) plus agent (100 μM)) was 94.57 ± 7.85 fmol/10^5 cells. The “cGMP (fmol/10^5 cells)” value (cGMP levels in RASMCs; Table 3, agent alone, 100 μM) was 62.50 ± 5.21 fmol/10^5 cells, the “effect on potency of isoproterenol or SNP (concentration-response curve shift)” value (rat aortic rings; 1 μM pretreatment, endothelium-denuded rings, PE 10 μM) was “markedly increased the potency” and the “inhibition of relaxation by L-NAME” value (rat aortic rings; E- rat thoracic aorta, L-NAME 100 μM) was “do not exhibit any significant inhibition”. The “relaxations in presence of ODQ or SQ 22536” value (rat aortic rings; E- rat thoracic aorta, ODQ 1 μM, SQ 22536 100 μM) was “attenuated”, the “maximal relaxation (Emax)” value (rat aortic rings; endothelium-denuded (E-) condition, PE 10 μM) was 73±3.9% and the pEC50 of vasorelaxation (rat aortic rings; endothelium-denuded aorta (E-)) was 5.08±0.03. For the same compound, the pEC50 of vasorelaxation (rat aortic rings; endothelium-intact aorta) was 6.21±0.10, the “vasorelaxations with ODQ combined with SQ 22536” value (rat aortic rings; endothelium-intact or endothelium-denuded aortic rings) was “additive effect to diminish the vasorelaxations” and the “vasorelaxant responses after pretreatment with L-NAME, ODQ, SQ 22536 or indomethacin” value (rat aortic rings; endothelium-intact rat thoracic aorta, L-NAME 100 μM, ODQ 1 μM, SQ 22536 100 μM, indomethacin 10 μM) was “reduced”. The “relaxation in the presence of 80 mM K+ solution versus PE” value (rat aortic rings; endothelium-intact rings precontracted with 80 mM K+, 1 nM-100 μM) was “great reduction of relaxation” and the “aortic relaxations in presence of K+ channel blockers” value (rat aortic rings; endothelium-intact, PE 10 μM, TEA 10 mM, glibenclamide 1 μM, 4-AP 100 μM, apamin 1 μM, ChTX 0.1 μM) was “reduced”.
